Experimental data taken from publication PMC7066191, “Exploiting loss of heterozygosity for allele-selective colorectal cancer chemotherapy” (Nature Communications, 2020).

How the values were obtained:
ABL2 = ABL2 (Homo sapiens, UniProt P42684); assay: biochemical; design: scanMAX competition binding; kinase recovered on immobilized ligand quantified by qPCR, per cent of control; settings: read-out: APA (POC)
Method: (§1) The binding affinities of APA and NAPA were evaluated in the scanMAX^sm Kinase Assay Panel (DiscoverX) at a final concentration of 10 µM. The compounds were tested for steric or allosteric binding to kinases in solution. The kinase was captured from the solution through an immobilized kinase-specific ligand and the kinase recovery was quantified. The amount of recovered kinase in the presence or absence of APA or NAPA was measured by quantitative PCR compared with the kinase capture in absence of the compound. Any compound reducing the binding affinity of a kinase to the respective immobilized ligand was scored as a potential hit, and the binding affinity of the compound toward a kinase is interpreted as the difference between the kinase recovery in the absence and presence of the compound. The inhibitory binding constants (Kd) of APA and NAPA to AURKA were evaluated in a KdELECT Kinase Assay (DiscoverX). […] Data acquisition followed the same methodology as for the scanMAX^sm Kinase Assay Panel. 6 Supplementary Figure 4. Kinome inhibition profiles of APA and its NAT2 metabolite NAPA identifies preferential APA kinase targets and differential binding to AURKA a The human kinome was assessed for binding affinity to APA and NAPA at 10 µM concentration (468 kinases in the scanMAX Kinase Assay Panel, DiscoverX). The family stratification of kinases is shown as a cladogram. Circles visualize the binding affinity of NAPA and APA towards each kinase with a higher intensity of blue corresponding to a higher binding affinity. […] One single data point from one experiment at a concentration 18.5 µM of APA was excluded as an outlier. c Thermal shift assay for human recombinant AURKA in the presence of APA and the selective inhibitor S1451. Melting temperatures were obtained by calculating the first derivative of the tryptophan fluorescence ratio at 350 nm and 330 nm and are shown for AURKA in the presence of S1451 (blue) and APA (yellow). Structural similarities between APA and kinase inhibitors[27] prompted investigation of protein kinases as mediators of APA toxicity. […] To enrich for kinase interactions that could explain the preferential killing of slow NAT2 cells, we compared the binding affinity of each kinase with APA and NAPA, selected 44 targets with preferential binding to APA and excluded kinases non-essential for cell survival and those not expressed in CRC cells (Supplementary Fig. 4A, Supplementary Table 4). […] The growth inhibition of RKO and DLD-1 following siRNA-mediated AURKA knockdown (Figs. 3c, d) reflected the relative efficiency of protein downregulation (Supplementary Fig. 5C, D). […] (Supplementary Fig. 4C). AURKA regulates cell cycle progression through association with other centrosome and spindle-associated proteins. Its activation requires auto-phosphorylation at Thr288 and ensures spindle pole integrity, centrosome duplication as well as adequate chromosomal alignment and segregation, while its inhibition leads to multipolar spindles with acentrosomal poles[28],[31]. […] S1451 reduced the fraction of pAURKA levels by >90% regardless of NAT2 expression (Fig. 3f and Su

GRK4 = GRK4 (Homo sapiens, UniProt P32298); assay: biochemical; design: scanMAX competition binding; kinase recovered on immobilized ligand quantified by qPCR, per cent of control; settings: read-out: APA (POC)
Method: as §1

RPS6KA6_Dom1 = target: T1, RPS6KA6_Dom1 (Homo sapiens, UniProt Q9UK32); assay: biochemical; design: scanMAX competition binding; kinase recovered on immobilized ligand quantified by qPCR, per cent of control; settings: read-out: APA (POC)
T1 construct: gene RPS6KA6; Kin.Dom.1 N-terminal
Method: as §1

CDK7 = CDK7 (Homo sapiens, UniProt P50613); assay: biochemical; design: scanMAX competition binding; kinase recovered on immobilized ligand quantified by qPCR, per cent of control; settings: read-out: APA (POC)
Method: as §1

EIF2AK4 = EIF2AK4 (Homo sapiens, UniProt Q9P2K8); assay: biochemical; design: scanMAX competition binding; kinase recovered on immobilized ligand quantified by qPCR, per cent of control; settings: read-out: APA (POC)
Method: as §1

PDGFRA = PDGFRA (Homo sapiens, UniProt P16234); assay: biochemical; design: scanMAX competition binding; kinase recovered on immobilized ligand quantified by qPCR, per cent of control; settings: read-out: APA (POC)
Method: as §1

HIPK1 = HIPK1 (Homo sapiens, UniProt Q86Z02); assay: biochemical; design: scanMAX competition binding; kinase recovered on immobilized ligand quantified by qPCR, per cent of control; settings: read-out: APA (POC)
Method: as §1

DYRK1A = DYRK1A (Homo sapiens, UniProt Q13627); assay: biochemical; design: scanMAX competition binding; kinase recovered on immobilized ligand quantified by qPCR, per cent of control; settings: read-out: APA (POC)
Method: as §1

MKNK1 = MKNK1 (Homo sapiens, UniProt Q9BUB5); assay: biochemical; design: scanMAX competition binding; kinase recovered on immobilized ligand quantified by qPCR, per cent of control; settings: read-out: APA (POC)
Method: as §1

JAK3_JH1 = target: T2, JAK3_JH1 (Homo sapiens, UniProt P52333); assay: biochemical; design: scanMAX competition binding; kinase recovered on immobilized ligand quantified by qPCR, per cent of control; settings: read-out: APA (POC)
T2 construct: gene JAK3; JH1 domain
Method: as §1

CLK1 = CLK1 (Homo sapiens, UniProt P49759); assay: biochemical; design: scanMAX competition binding; kinase recovered on immobilized ligand quantified by qPCR, per cent of control; settings: read-out: APA (POC)
Method: as §1

CLK4 = CLK4 (Homo sapiens, UniProt Q9HAZ1); assay: biochemical; design: scanMAX competition binding; kinase recovered on immobilized ligand quantified by qPCR, per cent of control; settings: read-out: APA (POC)
Method: as §1

KDR = KDR (Homo sapiens, UniProt P35968); assay: biochemical; design: scanMAX competition binding; kinase recovered on immobilized ligand quantified by qPCR, per cent of control; settings: read-out: APA (POC)
Method: as §1

MAP3K9 = MAP3K9 (Homo sapiens, UniProt P80192); assay: biochemical; design: scanMAX competition binding; kinase recovered on immobilized ligand quantified by qPCR, per cent of control; settings: read-out: APA (POC)
Method: as §1

N-acetyltransferase 2 = target: T3, N-acetyltransferase 2 (Homo sapiens, UniProt P11245); assay: recombinant human NAT2 acetylation kinetics, LC-MS/MS of NAPA; format: biochemical
T3 construct: gene NAT2

Sequence of EIF2AK4 (Q9P2K8 whole entry): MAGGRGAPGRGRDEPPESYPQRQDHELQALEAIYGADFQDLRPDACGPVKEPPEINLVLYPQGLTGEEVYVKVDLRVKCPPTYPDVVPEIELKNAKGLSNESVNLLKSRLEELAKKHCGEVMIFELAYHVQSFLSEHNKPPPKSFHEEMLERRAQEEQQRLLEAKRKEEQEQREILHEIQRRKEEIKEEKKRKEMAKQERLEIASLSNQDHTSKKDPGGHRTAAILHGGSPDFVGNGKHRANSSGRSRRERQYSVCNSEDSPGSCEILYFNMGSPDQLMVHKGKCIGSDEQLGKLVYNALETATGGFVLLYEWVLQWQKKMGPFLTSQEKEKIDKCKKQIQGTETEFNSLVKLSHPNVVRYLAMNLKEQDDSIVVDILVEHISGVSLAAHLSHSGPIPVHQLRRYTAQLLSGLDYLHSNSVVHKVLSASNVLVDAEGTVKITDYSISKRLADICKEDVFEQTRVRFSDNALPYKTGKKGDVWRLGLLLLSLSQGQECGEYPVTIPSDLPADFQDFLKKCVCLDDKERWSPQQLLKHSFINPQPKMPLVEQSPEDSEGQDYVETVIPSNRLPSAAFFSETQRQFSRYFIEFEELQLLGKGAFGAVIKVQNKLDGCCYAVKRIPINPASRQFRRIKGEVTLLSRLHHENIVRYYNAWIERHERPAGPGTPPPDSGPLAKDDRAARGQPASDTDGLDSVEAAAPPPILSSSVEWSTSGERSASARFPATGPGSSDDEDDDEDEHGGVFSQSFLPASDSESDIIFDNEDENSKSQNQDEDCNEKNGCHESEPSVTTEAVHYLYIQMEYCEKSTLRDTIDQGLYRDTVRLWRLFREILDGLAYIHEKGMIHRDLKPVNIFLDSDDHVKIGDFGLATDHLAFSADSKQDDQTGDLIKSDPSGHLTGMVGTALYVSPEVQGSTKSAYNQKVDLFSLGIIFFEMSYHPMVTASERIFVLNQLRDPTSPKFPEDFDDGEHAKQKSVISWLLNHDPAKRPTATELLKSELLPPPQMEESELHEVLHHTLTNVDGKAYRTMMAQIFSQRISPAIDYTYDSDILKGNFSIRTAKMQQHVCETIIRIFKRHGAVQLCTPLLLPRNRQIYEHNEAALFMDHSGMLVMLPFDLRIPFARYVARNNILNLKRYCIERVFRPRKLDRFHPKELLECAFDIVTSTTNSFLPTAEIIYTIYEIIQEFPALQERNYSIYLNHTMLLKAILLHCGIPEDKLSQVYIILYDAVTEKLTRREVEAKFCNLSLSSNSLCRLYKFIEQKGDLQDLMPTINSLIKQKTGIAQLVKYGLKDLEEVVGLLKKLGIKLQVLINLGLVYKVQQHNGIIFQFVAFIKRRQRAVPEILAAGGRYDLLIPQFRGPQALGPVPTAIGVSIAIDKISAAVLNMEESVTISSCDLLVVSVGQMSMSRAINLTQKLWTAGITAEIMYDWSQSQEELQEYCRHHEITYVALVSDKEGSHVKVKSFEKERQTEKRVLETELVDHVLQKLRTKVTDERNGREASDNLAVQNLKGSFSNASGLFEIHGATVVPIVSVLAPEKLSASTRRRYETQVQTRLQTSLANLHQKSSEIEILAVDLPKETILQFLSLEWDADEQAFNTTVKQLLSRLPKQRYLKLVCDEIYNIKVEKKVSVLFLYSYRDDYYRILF
Sequence of MKNK1 (Q9BUB5 whole entry): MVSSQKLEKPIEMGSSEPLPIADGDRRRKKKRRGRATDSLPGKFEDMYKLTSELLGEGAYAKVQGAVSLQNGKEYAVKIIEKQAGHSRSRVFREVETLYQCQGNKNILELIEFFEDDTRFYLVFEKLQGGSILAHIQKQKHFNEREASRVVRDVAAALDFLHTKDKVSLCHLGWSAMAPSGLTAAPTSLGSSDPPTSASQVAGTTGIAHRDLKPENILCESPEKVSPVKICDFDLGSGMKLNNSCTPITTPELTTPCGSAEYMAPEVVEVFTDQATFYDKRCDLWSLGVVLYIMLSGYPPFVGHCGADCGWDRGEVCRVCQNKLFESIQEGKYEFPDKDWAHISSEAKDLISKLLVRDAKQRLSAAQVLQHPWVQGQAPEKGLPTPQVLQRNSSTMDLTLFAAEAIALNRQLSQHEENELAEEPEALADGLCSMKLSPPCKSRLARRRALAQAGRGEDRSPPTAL
Sequence of CLK4 (Q9HAZ1 whole entry): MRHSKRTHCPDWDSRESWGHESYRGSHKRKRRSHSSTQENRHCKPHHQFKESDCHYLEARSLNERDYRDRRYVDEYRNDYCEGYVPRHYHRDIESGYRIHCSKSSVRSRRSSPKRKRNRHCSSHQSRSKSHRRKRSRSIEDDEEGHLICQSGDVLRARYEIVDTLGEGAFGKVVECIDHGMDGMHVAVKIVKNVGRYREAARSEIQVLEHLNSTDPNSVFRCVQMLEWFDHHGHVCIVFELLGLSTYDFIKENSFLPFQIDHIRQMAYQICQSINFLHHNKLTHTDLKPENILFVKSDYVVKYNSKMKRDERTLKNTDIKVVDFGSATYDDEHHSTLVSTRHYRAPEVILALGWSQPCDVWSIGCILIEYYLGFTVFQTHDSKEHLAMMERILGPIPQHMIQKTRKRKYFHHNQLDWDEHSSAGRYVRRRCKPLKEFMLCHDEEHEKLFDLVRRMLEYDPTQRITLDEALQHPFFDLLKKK
T2 sequence (P52333 whole entry, the tested form may be a part): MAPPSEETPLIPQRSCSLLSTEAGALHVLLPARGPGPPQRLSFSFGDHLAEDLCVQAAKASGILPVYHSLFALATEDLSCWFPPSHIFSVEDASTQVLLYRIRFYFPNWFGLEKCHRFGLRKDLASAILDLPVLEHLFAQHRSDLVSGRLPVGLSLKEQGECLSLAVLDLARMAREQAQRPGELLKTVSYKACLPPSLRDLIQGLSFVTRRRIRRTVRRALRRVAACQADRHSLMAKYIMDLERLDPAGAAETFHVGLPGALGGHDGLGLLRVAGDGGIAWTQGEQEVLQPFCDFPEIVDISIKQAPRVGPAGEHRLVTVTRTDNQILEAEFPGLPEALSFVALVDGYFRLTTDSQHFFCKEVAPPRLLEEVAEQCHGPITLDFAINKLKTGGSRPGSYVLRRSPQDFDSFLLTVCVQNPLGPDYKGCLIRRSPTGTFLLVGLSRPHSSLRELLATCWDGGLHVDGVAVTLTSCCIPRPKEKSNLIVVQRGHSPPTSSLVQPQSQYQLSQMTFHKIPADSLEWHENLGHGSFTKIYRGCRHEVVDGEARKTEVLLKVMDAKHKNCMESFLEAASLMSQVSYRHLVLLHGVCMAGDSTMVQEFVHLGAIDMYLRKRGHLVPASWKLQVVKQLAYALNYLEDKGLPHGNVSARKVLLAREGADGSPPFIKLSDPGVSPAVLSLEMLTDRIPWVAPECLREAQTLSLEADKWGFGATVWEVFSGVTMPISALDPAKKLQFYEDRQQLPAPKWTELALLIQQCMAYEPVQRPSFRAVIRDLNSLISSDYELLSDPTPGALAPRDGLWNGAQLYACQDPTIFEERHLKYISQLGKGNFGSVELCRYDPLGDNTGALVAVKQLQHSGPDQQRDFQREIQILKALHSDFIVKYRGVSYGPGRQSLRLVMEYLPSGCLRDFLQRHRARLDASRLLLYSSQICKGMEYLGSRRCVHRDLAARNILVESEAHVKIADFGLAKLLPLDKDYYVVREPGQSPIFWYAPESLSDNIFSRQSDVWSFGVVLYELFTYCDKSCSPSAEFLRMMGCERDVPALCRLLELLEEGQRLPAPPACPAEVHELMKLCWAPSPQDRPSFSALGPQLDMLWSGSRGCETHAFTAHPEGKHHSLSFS
Sequence of MAP3K9 (P80192 whole entry): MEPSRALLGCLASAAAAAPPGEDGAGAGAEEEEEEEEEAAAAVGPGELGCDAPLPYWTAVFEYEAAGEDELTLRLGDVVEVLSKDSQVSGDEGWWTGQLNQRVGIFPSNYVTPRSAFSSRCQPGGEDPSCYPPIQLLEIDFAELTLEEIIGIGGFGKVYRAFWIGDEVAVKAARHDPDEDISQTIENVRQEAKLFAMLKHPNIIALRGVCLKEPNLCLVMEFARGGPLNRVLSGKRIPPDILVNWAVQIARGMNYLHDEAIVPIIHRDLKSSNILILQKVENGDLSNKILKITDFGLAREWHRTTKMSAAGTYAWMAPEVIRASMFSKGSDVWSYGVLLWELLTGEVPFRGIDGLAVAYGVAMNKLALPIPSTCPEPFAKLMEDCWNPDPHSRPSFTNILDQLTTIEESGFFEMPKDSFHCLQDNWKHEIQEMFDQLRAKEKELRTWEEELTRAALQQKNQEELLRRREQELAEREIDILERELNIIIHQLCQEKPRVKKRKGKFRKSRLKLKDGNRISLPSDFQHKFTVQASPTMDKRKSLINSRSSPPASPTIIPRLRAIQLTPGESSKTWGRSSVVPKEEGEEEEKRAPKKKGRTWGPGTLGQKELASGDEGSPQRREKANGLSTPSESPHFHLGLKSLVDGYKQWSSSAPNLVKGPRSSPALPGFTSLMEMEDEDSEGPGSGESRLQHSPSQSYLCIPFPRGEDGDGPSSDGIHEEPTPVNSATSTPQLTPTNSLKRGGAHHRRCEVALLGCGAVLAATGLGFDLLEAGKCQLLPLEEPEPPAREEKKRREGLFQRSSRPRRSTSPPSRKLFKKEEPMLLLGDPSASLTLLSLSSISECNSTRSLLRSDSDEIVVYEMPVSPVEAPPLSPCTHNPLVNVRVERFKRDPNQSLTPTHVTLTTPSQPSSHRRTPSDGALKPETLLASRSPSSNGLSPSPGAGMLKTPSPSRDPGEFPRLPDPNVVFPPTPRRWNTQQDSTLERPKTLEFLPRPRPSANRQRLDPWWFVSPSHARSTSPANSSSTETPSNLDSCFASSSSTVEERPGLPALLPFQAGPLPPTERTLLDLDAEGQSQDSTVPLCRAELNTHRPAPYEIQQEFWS

COc1cc(Nc2cncc(-c3ccc(N)cc3)n2)cc(OC)c1OC [APA, 6-(4-aminophenyl)-N-(3,4,5-trimethoxyphenyl)pyrazin-2-amine]
remaining binding at 10 µM (ABL2): 14% | remaining binding at 10 µM (GRK4): 15% | remaining binding at 10 µM (RPS6KA6_Dom1): 58% | remaining binding at 10 µM (CDK7): 49% | remaining binding at 10 µM (EIF2AK4): 38% | remaining binding at 10 µM (PDGFRA): 3.4% | remaining binding at 10 µM (HIPK1): 12% | remaining binding at 10 µM (DYRK1A): 7.8% | remaining binding at 10 µM (MKNK1): 37% | remaining binding at 10 µM (JAK3_JH1): 19% | remaining binding at 10 µM (CLK1): 25% | remaining binding at 10 µM (CLK4): 27% | remaining binding at 10 µM (KDR): 7.1% | remaining binding at 10 µM (MAP3K9): 8.5% | recombinant human NAT2 acetylation kinetics, LC-MS/MS of NAPA (N-acetyltransferase 2): Recombinant assays with human NAT1 and NAT2 further proved APA acetylation to be specifically mediated by NAT2
